Data taken from ChEMBL document CHEMBL1150927, “Antineoplastic agents. 398. Isolation and structure elucidation of cephalostatins 18 and 19” (1998).
Values after ≈ are worked out from the molar mass of the structure shown.

Key:
Format in all cases: functional
[1] = Growth inhibition of human NCI60 cells
[2] = test system: NCI-H460; assay: Growth inhibition of human NCI-H460 cells
[3] = test system: SK-MEL-5; assay: Growth inhibition of human SK-MEL-5 cells
[4] = test system: KM-20L2; assay: Growth inhibition of human KM20L2 cells
[5] = test system: OVCAR-3; assay: Growth inhibition of human OVCAR-3 cells
[6] = test system: SF-295; assay: Growth inhibition of human SF295 cells
[7] = test system: A498; assay: Growth inhibition of human A498 cells
[8] = test system: P388; assay: Cytotoxicity against mouse P388 cells; settings: read-out: ED50 (the source's name)

Row | SMILES | GI50 [1] | GI50 [2] | GI50 [3] | GI50 [4] | GI50 [5] | GI50 [6] | GI50 [7] | EC50 [8]
1 | C[C@@H]1[C@]2(O[C@H]3C=C4[C@@H]5CC[C@H]6Cc7nc8c(nc7C[C@]6(C)[C@H]5C[C@@H](O)[C@]4(C)[C@]31O)C[C@@H]1CC[C@H]3C4=CC[C@@H]5[C@H](C)[C@@]6(OC[C@]45C(=O)C[C@@H]3[C@@]1(C)C8)OC(C)(C)C[C@H]6O)O[C@](C)(CO)C[C@H]2O [CEPHALOSTATIN 1] | 2.2 nM | – | – | – | – | – | – | –
2 | CO[C@H]1c2nc3c(nc2C[C@@H]2CC[C@H]4C5=C[C@@H]6O[C@]7(O[C@](C)(CO)C[C@H]7O)[C@@H](C)[C@]6(O)[C@@]5(C)[C@H](O)C[C@@H]4[C@]21C)C[C@@]1(C)[C@@H](CC[C@H]2C4=CC[C@@H]5[C@H](C)[C@@]6(OC[C@]45C(=O)C[C@@H]21)OC(C)(C)C[C@H]6O)C3 [CEPHALOSTATIN 18] | 21.7 nM | < 1 ng/mL | < 1 ng/mL | < 1 ng/mL | < 1 ng/mL | < 1 ng/mL | < 1 ng/mL | 4.3 ng/mL (≈ 4.57 nM)
3 | CO[C@H]1c2nc3c(nc2C[C@@H]2CC[C@H]4C5=CC[C@@H]6[C@H](C)[C@@]7(OC[C@]56C(=O)C[C@@H]4[C@]21C)OC(C)(C)C[C@H]7O)C[C@@]1(C)[C@@H](CC[C@H]2C4=C[C@@H]5O[C@]6(O[C@](C)(CO)C[C@H]6O)[C@@H](C)[C@]5(O)[C@@]4(C)[C@H](O)C[C@@H]21)C3 [CEPHALOSTATIN 19] | 16.6 nM | < 1 ng/mL | < 1 ng/mL | < 1 ng/mL | < 1 ng/mL | < 1 ng/mL | < 1 ng/mL | 7.4 ng/mL (≈ 7.86 nM)
